Laboratory results as given in PubChem BioAssay (NCI).
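Following 48 hours of exposure in 96-well plates, responses at five concentrations were used to interpolate endpoints linearly. At the TGI there is no net growth.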

How the values were obtained:
Assay in all cases: NCI-60 cell line screen, 48 h
[1] = tested on: 786-0 renal
[2] = tested on: HCC-2998 colon
[3] = tested on: HCT-116 colon
[4] = tested on: LOX IMVI melanoma
[5] = tested on: MALME-3M melanoma
[6] = tested on: NCI-H460 lung
[7] = tested on: NCI-H522 lung
[8] = tested on: OVCAR-8 ovarian
[9] = tested on: SF-295 CNS
[10] = tested on: SF-539 CNS
[11] = tested on: SK-MEL-2 melanoma
[12] = tested on: SK-MEL-28 melanoma
[13] = tested on: SN12C renal
[14] = tested on: SNB-75 CNS
[15] = tested on: SW-620 colon
[16] = tested on: U251 CNS
[17] = tested on: SNB-19 CNS
[18] = tested on: DU-145 prostate

N#[O+].O=S(=O)([O-])[O-].[NH2-].[NH2-].[NH2-].[NH2-].[NH2-].[Ru+5]
TGI [1]: > 100 µM
TGI [2]: > 100 µM
TGI [3]: > 100 µM
TGI [4]: > 100 µM
TGI [5]: 27.7 µM
TGI [6]: > 100 µM
TGI [7]: > 100 µM
TGI [8]: > 100 µM
TGI [9]: > 100 µM
TGI [10]: > 100 µM
TGI [11]: > 100 µM
TGI [12]: > 100 µM
TGI [13]: > 100 µM
TGI [14]: > 100 µM
TGI [15]: > 100 µM
TGI [16]: > 100 µM

COc1cc(C2c3cc4c(cc3[C@@H](Nc3ccccc3)C3CO[C@@H](OC)[C@H]23)OCO4)cc(OC)c1O (some centres not stated)
TGI [1]: 15.4 µM
TGI [2]: > 25 µM
TGI [3]: > 25 µM
TGI [6]: > 25 µM
TGI [7]: > 25 µM
TGI [8]: > 25 µM
TGI [9]: 12.4 µM
TGI [10]: 12.1 µM
TGI [12]: > 25 µM
TGI [13]: > 25 µM
TGI [17]: > 25 µM
TGI [14]: > 25 µM
TGI [15]: > 25 µM
TGI [16]: > 25 µM

O=C1c2ccccc2S[C@@H](O)[C@@H]2CCCN12
TGI [1]: > 100 µM
TGI [2]: > 100 µM
TGI [3]: > 100 µM
TGI [4]: > 100 µM
TGI [5]: > 100 µM
TGI [6]: > 100 µM
TGI [7]: > 100 µM
TGI [8]: > 100 µM
TGI [9]: > 100 µM
TGI [10]: > 100 µM
TGI [11]: > 100 µM
TGI [12]: > 100 µM
TGI [13]: > 100 µM
TGI [17]: > 100 µM
TGI [15]: > 100 µM
TGI [16]: > 100 µM

CC(=O)OC1CC2OC(Cc3ccccc32)O1 (configuration not stated)
TGI [1]: > 100 µM
TGI [2]: > 100 µM
TGI [3]: > 100 µM
TGI [4]: > 100 µM
TGI [5]: 63.7 µM
TGI [6]: > 100 µM
TGI [7]: > 100 µM
TGI [8]: > 100 µM
TGI [9]: > 100 µM
TGI [10]: 81.6 µM
TGI [11]: > 100 µM
TGI [12]: > 100 µM
TGI [13]: > 100 µM
TGI [17]: > 100 µM
TGI [14]: > 100 µM
TGI [15]: > 100 µM
TGI [16]: > 100 µM

CCOC(=O)CC(NC(=O)c1nc[nH]c1[N+](=O)[O-])C(=O)OCC (configuration not stated)
TGI [1]: > 100 µM
TGI [2]: > 100 µM
TGI [3]: > 100 µM
TGI [4]: > 100 µM
TGI [5]: > 100 µM
TGI [6]: > 100 µM
TGI [7]: > 100 µM
TGI [8]: > 100 µM
TGI [9]: > 100 µM
TGI [10]: > 100 µM
TGI [11]: > 100 µM
TGI [12]: > 100 µM
TGI [13]: > 100 µM
TGI [17]: > 100 µM
TGI [14]: > 100 µM
TGI [15]: > 100 µM
TGI [16]: 36.9 µM

COc1cc2c(c(OC)c1OC)-c1ccc(SC)c(=O)cc1C(CC(=O)Oc1ccc([N+](=O)[O-])cc1)C2 (configuration not stated)
TGI [1]: > 37.2 µM
TGI [2]: 2.13 µM
TGI [3]: 1.82 µM
TGI [4]: 20.2 µM
TGI [5]: > 65.2 µM
TGI [6]: 5.78 µM
TGI [8]: 5.08 µM
TGI [9]: > 45.6 µM
TGI [10]: 0.636 µM
TGI [11]: > 48.8 µM
TGI [12]: > 56.6 µM
TGI [13]: > 43.1 µM
TGI [17]: > 31.8 µM
TGI [14]: 0.68 µM
TGI [15]: > 48.7 µM
TGI [16]: 1.43 µM

CC1=CC(=O)NP(=O)(Oc2ccc(C)cc2)N1 (configuration not stated)
TGI [1]: > 100 µM
TGI [3]: > 100 µM
TGI [4]: > 100 µM
TGI [5]: > 100 µM
TGI [6]: > 100 µM
TGI [7]: > 100 µM
TGI [8]: > 100 µM
TGI [9]: > 100 µM
TGI [10]: > 100 µM
TGI [11]: > 100 µM
TGI [12]: > 100 µM
TGI [13]: > 100 µM
TGI [17]: > 100 µM
TGI [14]: > 100 µM
TGI [15]: > 100 µM
TGI [16]: > 100 µM

Cc1ccccc1Nc1cn(COCc2ccccc2)c(=O)[nH]c1=O
TGI [1]: > 100 µM
TGI [18]: > 100 µM
TGI [2]: > 100 µM
TGI [3]: > 100 µM
TGI [4]: > 100 µM
TGI [6]: > 100 µM
TGI [7]: > 100 µM
TGI [9]: > 100 µM
TGI [12]: > 100 µM
TGI [13]: > 100 µM
TGI [17]: > 100 µM
TGI [15]: > 100 µM
TGI [16]: > 100 µM

CN(C)/N=C(\CCN1CCCC1)CC(c1ccccc1)c1c(O)c2ccccc2oc1=O (configuration not stated)
TGI [1]: > 100 µM
TGI [2]: > 100 µM
TGI [3]: > 100 µM
TGI [4]: > 100 µM
TGI [5]: > 100 µM
TGI [7]: > 100 µM
TGI [9]: > 100 µM
TGI [10]: > 100 µM
TGI [11]: > 100 µM
TGI [12]: > 100 µM
TGI [13]: > 100 µM
TGI [17]: > 100 µM
TGI [14]: > 100 µM
TGI [15]: > 100 µM

Cc1cc(=O)[nH]c(NNC(C#N)c2ccc(O)cc2)n1 (configuration not stated)
TGI [1]: > 100 µM
TGI [3]: > 100 µM
TGI [4]: > 100 µM
TGI [5]: > 100 µM
TGI [6]: > 100 µM
TGI [7]: > 100 µM
TGI [8]: > 100 µM
TGI [9]: > 100 µM
TGI [10]: > 100 µM
TGI [11]: > 100 µM
TGI [12]: > 100 µM
TGI [13]: > 100 µM
TGI [14]: > 100 µM
TGI [15]: > 100 µM
TGI [16]: > 100 µM

O=C1CCC(c2ccccc2)C(O)(C(=O)O)C1 (configuration not stated)
TGI [1]: > 100 µM
TGI [2]: > 100 µM
TGI [3]: > 100 µM
TGI [4]: > 100 µM
TGI [5]: > 100 µM
TGI [6]: > 100 µM
TGI [7]: > 100 µM
TGI [8]: > 100 µM
TGI [9]: > 100 µM
TGI [10]: > 100 µM
TGI [11]: > 100 µM
TGI [12]: > 100 µM
TGI [13]: > 100 µM
TGI [17]: > 100 µM
TGI [14]: > 100 µM
TGI [15]: > 100 µM
TGI [16]: > 100 µM

C/C(=N\NC(=S)N1CC2CCC(CC2)C1)c1ccncn1
TGI [1]: 2.86 µM
TGI [18]: 6.26 µM
TGI [3]: 1.5 µM
TGI [4]: 3.1 µM
TGI [5]: 1.42 µM
TGI [6]: 1.65 µM
TGI [7]: 2.32 µM
TGI [9]: 4.94 µM
TGI [10]: 2.02 µM
TGI [11]: 5.39 µM
TGI [12]: > 22.6 µM
TGI [13]: 5.16 µM
TGI [17]: 15 µM
TGI [14]: 3.4 µM
TGI [15]: 18.4 µM
TGI [16]: 6.23 µM
